Earlier results on five substances are cited in article PMC11768433 (Viruses, 2024).

Data set [1] relates to Herpes simplex virus type 1(HSV-1). On the set-up: method as in Ref.18572274. Conditions: HSV-1 entry, Vero cells, at 250μM; ref Ref.18572274.
The subject of the next data set is Vero cells. On the set-up: method as in Ref.18572274. To be noted: up to 500 μM, ref Ref.18572274.
In the next data set the test system is Dengue virus 2(DENV2). On the set-up: method as in Ref.35663971. Conditions: DENV2, Huh7 cells, at 10 μM; ref Ref.35663971.
Another data set relates to HSV. On the set-up: method as in Ref.35663971. To be noted: Huh7 cells, at 10 μM, ref Ref.35663971.
Another data set has as its system SARS-CoV-2. On the set-up: method as in Ref.35663971. To be noted: SARS-CoV-2, Huh7 cells, at 10 μM; ref Ref.35663971.
Another data set relates to Vero E6 cells. On the set-up: method as in Ref.35663971. Conditions: ref Ref.35663971.
Another data set deals with HIV-1. On the set-up: method as in Ref.12054767. Conditions: up to 100 μM; ref Ref.12054767.
The next data set has as its system P4 cells. On the set-up: method as in Ref.12054767. To be noted: MTT assay, peptide concentrations higher than 100 μM, ref Ref.12054767.
Another data set concerns MDCK cells. On the set-up: method as in Ref.17005658. To be noted: up to 50μM, ref Ref.17005658.
The next data set relates to Human PBMC. On the set-up: method as in Ref.30867304. To be noted: ref Ref.30867304.
Another data set deals with TZM-bl cells. On the set-up: method as in Ref.30867304. To be noted: ref Ref.30867304.
A further data set relates to MT-4 cells. On the set-up: method as in Ref.30867304. To be noted: ref Ref.30867304.
The next data set has as its system C8166 cells. On the set-up: method as in Ref.30867304. Conditions: ref Ref.30867304.
In a further data set the test system is U937 cells. On the set-up: method as in Ref.30867304. Conditions: U937 cells (cell text ends after μ); ref Ref.30867304.

Turning to AAHLIDALYAEFLGGRVLTT [DRAVPe01423], the inhibition (usually how much of the control response was suppressed) in data set [1] is 60%. Further, the “cytotoxicity” value in the data set on Vero cells was “[Ref.18572274]No cytotoxicity against Vero cells up to 500 μM”.
With “MGRFKRFRKKFKKLFKKLS [DRAVPe01948, DRAVP database peptide bomidin]”, the inhibition in the data set on Dengue virus 2(DENV2) is 50%; with HSV, 50%; in the data set with SARS-CoV-2, 80%. For the same substance, the CC50 in the data set with Vero E6 cells is given as 169.6 µM.
Consider “QLLIRMI [DRAVPe00092, DRAVP database peptide, target HIV-1 integrase]”, for which, in the data set on HIV-1, the “inhibition of HIV-1 infection” value is listed as “no inhibition”. The “decrease of cell viability” value with P4 cells is around 5%.
Consider RRKKAAVALLPAVLLALLAP [DRAVPe01891], for which the “cytotoxicity” value with MDCK cells was “[Ref.17005658]No cytotoxicity against MDCK cells up to 50μM”.
Take “WEQKIEELLKKAEEQQKKNEEELKKLEKX [DRAVPe00787]”: the CC50 was 40.27 µM in the data set with Human PBMC; 12.34 µM in the data set on TZM-bl cells; 19.65 µM with MT-4 cells; 19.19 µM in the data set with C8166 cells; 9.97 μ in the data set with U937 cells.
